Assay results: the NIST ThermoML archive (doi:10.1016/j.fluid.2004.12.005)
“And” between values parts separate entries of the source, which are not always exact repeats. Equal entries are not always repeated.

Experiments:
[1] = excess molar enthalpy (molar enthalpy of mixing); xn = mol fraction of the nth substance listed; conditions: Liquid, Flow calorimetry
[2] = activity coefficient (dimensionless); of the first substance listed, at infinite dilution; xn = mol fraction of the nth substance listed; conditions: Liquid, Chromatography, x1 = 0
[3] = Solid-liquid equilibrium temperature; conditions: 100 kPa; Crystal; visual observation

CCOC(C)=O [ethyl acetate] + CCCCCC
[1]
Conditions	excess molar enthalpy [kcal/mol]
363.15 K, 1583 kPa, x2 = 0.0377	0.042
363.15 K, 1583 kPa, x2 = 0.0764	0.0851
363.15 K, 1583 kPa, x2 = 0.1162	0.128
363.15 K, 1583 kPa, x2 = 0.157	0.164
363.15 K, 1583 kPa, x2 = 0.1989	0.196
363.15 K, 1583 kPa, x2 = 0.242	0.228
363.15 K, 1583 kPa, x2 = 0.2862	0.254
363.15 K, 1583 kPa, x2 = 0.3318	0.275
363.15 K, 1583 kPa, x2 = 0.3786	0.292
363.15 K, 1583 kPa, x2 = 0.4269	0.305
363.15 K, 1583 kPa, x2 = 0.4765	0.309
363.15 K, 1583 kPa, x2 = 0.5277	0.31
363.15 K, 1583 kPa, x2 = 0.5804	0.304
363.15 K, 1583 kPa, x2 = 0.6347	0.291
363.15 K, 1583 kPa, x2 = 0.6908	0.267
363.15 K, 1583 kPa, x2 = 0.7487	0.237
363.15 K, 1583 kPa, x2 = 0.8084	0.197
363.15 K, 1583 kPa, x2 = 0.8702	0.146
363.15 K, 1583 kPa, x2 = 0.934	0.0799
413.15 K, 1376 kPa, x2 = 0.0377	0.0453
413.15 K, 1376 kPa, x2 = 0.0765	0.0863
413.15 K, 1376 kPa, x2 = 0.1162	0.126
413.15 K, 1376 kPa, x2 = 0.1571	0.162
413.15 K, 1376 kPa, x2 = 0.199	0.195
413.15 K, 1376 kPa, x2 = 0.2421	0.224
413.15 K, 1376 kPa, x2 = 0.2864	0.251
413.15 K, 1376 kPa, x2 = 0.332	0.271
413.15 K, 1376 kPa, x2 = 0.3788	0.288
413.15 K, 1376 kPa, x2 = 0.427	0.301
413.15 K, 1376 kPa, x2 = 0.4767	0.305
413.15 K, 1376 kPa, x2 = 0.5279	0.306
413.15 K, 1376 kPa, x2 = 0.5806	0.3
413.15 K, 1376 kPa, x2 = 0.6349	0.288
413.15 K, 1376 kPa, x2 = 0.691	0.266
413.15 K, 1376 kPa, x2 = 0.7488	0.236
413.15 K, 1376 kPa, x2 = 0.8086	0.196
413.15 K, 1376 kPa, x2 = 0.8703	0.144
413.15 K, 1376 kPa, x2 = 0.934	0.0788

CC(=O)OC(C)C [1-methylethyl ethanoate] + CCCCCCCCCC
[2]
Conditions	activity coefficient
303.16 K	2.56
313.14 K	2.48
323.17 K	2.41
333.16 K	2.36

c1ccccc1 [benzene]
Conditions	Solid-liquid equilibrium temperature [K]
[3]	278.94

Cc1ccc(C)cc1 [1,4-dimethylbenzene]
Conditions	Solid-liquid equilibrium temperature [K]
[3]	286.45

COC(C)=O [methyl ethanoate] + CCCCCC
[1]
Conditions	excess molar enthalpy [kcal/mol]
363.15 K, 1617 kPa, x1 = 0.0801	0.119
363.15 K, 1617 kPa, x1 = 0.1552	0.211
363.15 K, 1617 kPa, x1 = 0.2259	0.28
363.15 K, 1617 kPa, x1 = 0.2925	0.331
363.15 K, 1617 kPa, x1 = 0.3554	0.365
363.15 K, 1617 kPa, x1 = 0.4148	0.386
363.15 K, 1617 kPa, x1 = 0.471	0.397
363.15 K, 1617 kPa, x1 = 0.5244	0.398
363.15 K, 1617 kPa, x1 = 0.575	0.392
363.15 K, 1617 kPa, x1 = 0.6232	0.382
363.15 K, 1617 kPa, x1 = 0.669	0.361
363.15 K, 1617 kPa, x1 = 0.7127	0.337
363.15 K, 1617 kPa, x1 = 0.7544	0.308
363.15 K, 1617 kPa, x1 = 0.7942	0.274
363.15 K, 1617 kPa, x1 = 0.8322	0.237
363.15 K, 1617 kPa, x1 = 0.8687	0.196
363.15 K, 1617 kPa, x1 = 0.9036	0.151
363.15 K, 1617 kPa, x1 = 0.937	0.103
363.15 K, 1617 kPa, x1 = 0.9692	0.0525
413.15 K, 1376 kPa, x1 = 0.0801	0.119
413.15 K, 1376 kPa, x1 = 0.1552	0.215
413.15 K, 1376 kPa, x1 = 0.2259	0.287
413.15 K, 1376 kPa, x1 = 0.2925	0.34
413.15 K, 1376 kPa, x1 = 0.3553	0.377
413.15 K, 1376 kPa, x1 = 0.4148	0.401
413.15 K, 1376 kPa, x1 = 0.471	0.413
413.15 K, 1376 kPa, x1 = 0.5244	0.415
413.15 K, 1376 kPa, x1 = 0.575	0.41
413.15 K, 1376 kPa, x1 = 0.6232	0.399
413.15 K, 1376 kPa, x1 = 0.669	0.379
413.15 K, 1376 kPa, x1 = 0.7127	0.354
413.15 K, 1376 kPa, x1 = 0.7544	0.321
413.15 K, 1376 kPa, x1 = 0.7942	0.286
413.15 K, 1376 kPa, x1 = 0.8322	0.246
413.15 K, 1376 kPa, x1 = 0.8687	0.203
413.15 K, 1376 kPa, x1 = 0.9036	0.155
413.15 K, 1376 kPa, x1 = 0.937	0.107
413.15 K, 1376 kPa, x1 = 0.9692	0.0543

CCCCCCCCCCCCCC(=O)OCC [ethyl tetradecanoate]
Conditions	Solid-liquid equilibrium temperature
[3]	286.33 K and 286.36 K
